In patent US20250250303A1 (THE TRUSTEES OF COLUMBIA UNIVERSITY IN THE CITY OF NEW YORK, priority 2022, published 2025):
Bridge positions count the residues as written; N and C are the ends. Peptide text beside a SMILES is read from it.

Tests used:
IR wild-type (WT) = target: T1, IR wild-type (WT) (Homo sapiens, UniProt P06213); assay: IR activation (auto-phosphorylation) assay in 293 FT cells expressing IR WT; assay type: cell-based
T1 construct: expressed in transfected cells; host or cells: 293 FT cells
T1 sequence (P06213 28-1370 isoform P06213-2 limits assumed): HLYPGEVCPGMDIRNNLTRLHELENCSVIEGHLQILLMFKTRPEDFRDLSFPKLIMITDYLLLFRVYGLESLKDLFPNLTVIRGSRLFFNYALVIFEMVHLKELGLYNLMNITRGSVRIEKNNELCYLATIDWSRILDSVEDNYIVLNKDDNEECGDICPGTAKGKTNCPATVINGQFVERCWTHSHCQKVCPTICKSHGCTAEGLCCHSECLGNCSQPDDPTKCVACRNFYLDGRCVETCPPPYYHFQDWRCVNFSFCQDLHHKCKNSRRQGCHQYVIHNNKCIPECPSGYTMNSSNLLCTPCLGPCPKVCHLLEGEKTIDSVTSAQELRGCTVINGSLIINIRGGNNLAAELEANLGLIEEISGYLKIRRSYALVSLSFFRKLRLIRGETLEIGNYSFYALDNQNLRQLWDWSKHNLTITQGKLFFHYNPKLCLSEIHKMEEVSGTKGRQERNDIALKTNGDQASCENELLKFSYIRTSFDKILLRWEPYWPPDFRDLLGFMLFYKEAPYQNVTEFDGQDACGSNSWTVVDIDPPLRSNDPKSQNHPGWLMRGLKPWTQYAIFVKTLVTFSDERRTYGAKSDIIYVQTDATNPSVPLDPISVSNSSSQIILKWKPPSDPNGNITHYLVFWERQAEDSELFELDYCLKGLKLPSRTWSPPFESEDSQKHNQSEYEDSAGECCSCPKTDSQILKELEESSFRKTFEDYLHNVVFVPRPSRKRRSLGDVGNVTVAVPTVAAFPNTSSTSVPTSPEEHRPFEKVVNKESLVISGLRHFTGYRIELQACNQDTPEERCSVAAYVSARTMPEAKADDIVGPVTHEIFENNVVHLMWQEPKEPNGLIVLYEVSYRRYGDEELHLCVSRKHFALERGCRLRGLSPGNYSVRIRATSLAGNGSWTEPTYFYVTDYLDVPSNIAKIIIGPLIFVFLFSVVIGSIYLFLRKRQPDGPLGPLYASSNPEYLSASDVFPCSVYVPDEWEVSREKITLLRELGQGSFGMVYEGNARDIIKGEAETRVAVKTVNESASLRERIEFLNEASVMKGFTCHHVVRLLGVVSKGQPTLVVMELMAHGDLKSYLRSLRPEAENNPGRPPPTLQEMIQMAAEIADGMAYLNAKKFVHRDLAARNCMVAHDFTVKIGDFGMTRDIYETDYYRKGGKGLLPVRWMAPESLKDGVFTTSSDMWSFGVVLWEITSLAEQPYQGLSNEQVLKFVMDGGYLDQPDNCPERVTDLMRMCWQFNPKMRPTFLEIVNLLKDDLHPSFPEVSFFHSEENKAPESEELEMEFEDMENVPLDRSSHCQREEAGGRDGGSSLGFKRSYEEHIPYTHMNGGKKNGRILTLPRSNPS
T1 sequence (P06213 763-1382 partner limits assumed): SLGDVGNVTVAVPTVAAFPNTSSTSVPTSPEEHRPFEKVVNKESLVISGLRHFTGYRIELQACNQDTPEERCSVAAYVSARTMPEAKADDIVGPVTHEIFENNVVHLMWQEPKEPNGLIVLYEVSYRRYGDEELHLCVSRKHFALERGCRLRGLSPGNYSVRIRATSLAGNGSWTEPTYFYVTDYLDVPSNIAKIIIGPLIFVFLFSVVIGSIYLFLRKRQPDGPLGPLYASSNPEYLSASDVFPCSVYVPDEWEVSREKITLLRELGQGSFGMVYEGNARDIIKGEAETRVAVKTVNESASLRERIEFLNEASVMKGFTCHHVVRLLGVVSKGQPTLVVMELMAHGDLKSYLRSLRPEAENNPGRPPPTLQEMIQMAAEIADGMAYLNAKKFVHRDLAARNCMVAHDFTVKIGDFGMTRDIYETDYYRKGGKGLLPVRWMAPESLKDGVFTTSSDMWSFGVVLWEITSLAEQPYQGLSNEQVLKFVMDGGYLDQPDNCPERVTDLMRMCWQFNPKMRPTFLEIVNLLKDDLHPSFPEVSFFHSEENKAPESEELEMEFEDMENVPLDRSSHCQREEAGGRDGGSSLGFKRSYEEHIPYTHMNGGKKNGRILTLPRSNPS
Method: The insulin receptor signaling assay was performed as described earlier with some modifications. For the activation assay, the short isoform of human IR in pCS2-MYC was used as described previously. Plasmid transfections into 293 FT cells were performed with Lipofectamin™ 2000 (Invitrogen).
The cells were incubated with the lysis buffer B [50 mM Hepes pH 7.4, 150 mM NaCl, 10% Glycerol, 1% Triton X-100, 1 mM EDTA, 100 mM sodium fluoride, 2 mM sodium orthovanadate, 20 mM sodium pyrophosphate, 0.5 mM dithiothreitol (DTT), 2 mM phenylmethylsulfonyl fluoride (PMSF)] supplemented with complete Protease Inhibitor Cocktail (Roche), PhosSTOP (Sigma), and 25 U/ml turbo nuclease (Accelagen) on ice for 1 hr. After centrifuge at 20,817 g at 4° C. for 10 min, the concentrations of cell lysate were measured using Micro BCA Protein Assay Kit (Thermo Scientific). About 50-60 μg total proteins were analyzed by SDS-PAGE and quantitative Western blotting. The following antibodies were purchased from commercial sources: Anti-IR-pY1150/1151 (WB, 1:1000; 19H6; labeled as pY IR, Cat. #3024), anti-AKT (WB, 1:1000; 40D4, Cat. #2920), anti-pS473 AKT (WB, 1:1000; D9E, Cat. #4060), anti-ERK1/2 (WB, 1:1000; L34F12, Cat. #4696), anti-pERK1/2 (WB, […]; 197G2, Cat. #4377), anti-IRS1-pS616 (WB, 1:1000; C15H5, Cell Signaling, Cat. #3203); anti-IRS1 (WB, 1:1000; A301-158A, Bethyl Laboratory); anti-IR (WB, 1:500, CT-3, Santa Cruz; labeled as IR for primary hepatocytes and MEFs, Cat. #sc-57342); anti-IR (WB, 1:1000; EPR23566-103; labeled as IR for FIG. 31, ab278100, Abcam); anti-Myc (WB, 1:2000; 9E10, Cat. #11667149001, Roche; labeled as IR for 293 FT cells). For quantitative western blots, anti-rabbit immunoglobulin G (IgG) (H+L) (WB, 1:5000; Dylight 800 conjugates, Cat. #5151) and anti-mouse IgG (H+L) (WB, 1:5000; Dylight 680 conjugates, Cat. #5470) (Cell Signaling) were used as secondary antibodies. The membranes were scanned with the Odyssey Infrared Imaging System (Li—COR, Lincoln, NE).

IR F64A = target: T2, IR F64A (Homo sapiens, UniProt P06213, F91A); assay: IR activation assay in 293 FT cells, IR F64A mutant; assay type: cell-based; settings: 10 nM for 10 min
T2 construct: expressed in transfected cells; host or cells: 293 FT cells
T2 sequence (P06213 28-1370 isoform P06213-2 F91A limits assumed): as the sequence (P06213 28-1370 isoform P06213-2 limits assumed) above, with F64A counted along it
T2 sequence (P06213 763-1382 partner limits assumed): as the sequence (P06213 763-1382 partner limits assumed) above

IR F96A = target: T3, IR F96A (Homo sapiens, UniProt P06213, F123A); assay: IR activation assay in 293 FT cells, IR F96A mutant; assay type: cell-based; settings: 10 nM for 10 min
T3 construct: expressed in transfected cells; host or cells: 293 FT cells
T3 sequence (P06213 28-1370 isoform P06213-2 F123A limits assumed): as the sequence (P06213 28-1370 isoform P06213-2 limits assumed) above, with F96A counted along it
T3 sequence (P06213 763-1382 partner limits assumed): as the sequence (P06213 763-1382 partner limits assumed) above

IR R14A = target: T4, IR R14A (Homo sapiens, UniProt P06213, R41A); assay: IR activation assay in 293 FT cells, IR R14A mutant; assay type: cell-based; settings: 10 min
T4 construct: expressed in transfected cells; host or cells: 293 FT cells
T4 sequence (P06213 28-1370 isoform P06213-2 R41A limits assumed): as the sequence (P06213 28-1370 isoform P06213-2 limits assumed) above, with R14A counted along it
T4 sequence (P06213 763-1382 partner limits assumed): as the sequence (P06213 763-1382 partner limits assumed) above

IR N15K = target: T5, IR N15K (Homo sapiens, UniProt P06213, N42K); assay: IR activation assay in 293 FT cells, IR N15K mutant; assay type: cell-based; settings: 10 min
T5 construct: expressed in transfected cells; host or cells: 293 FT cells
T5 sequence (P06213 28-1370 isoform P06213-2 N42K limits assumed): as the sequence (P06213 28-1370 isoform P06213-2 limits assumed) above, with N15K counted along it
T5 sequence (P06213 763-1382 partner limits assumed): as the sequence (P06213 763-1382 partner limits assumed) above

IR D496K = target: T6, IR D496K (Homo sapiens, UniProt P06213, D523K); assay: IR activation assay in 293 FT cells, IR D496K mutant; assay type: cell-based; settings: 10 min
T6 construct: expressed in transfected cells; host or cells: 293 FT cells
T6 sequence (P06213 28-1370 isoform P06213-2 D523K limits assumed): as the sequence (P06213 28-1370 isoform P06213-2 limits assumed) above, with D496K counted along it
T6 sequence (P06213 763-1382 partner limits assumed): as the sequence (P06213 763-1382 partner limits assumed) above

IR F701A/F705A = target: T7, IR F701A/F705A (Homo sapiens, UniProt P06213, F728A/F732A); assay: IR activation assay in 293 FT cells, IR F701A/F705A mutant; assay type: cell-based; settings: 10 min
T7 construct: expressed in transfected cells; host or cells: 293 FT cells
T7 sequence (P06213 28-1370 isoform P06213-2 F728A/F732A limits assumed): as the sequence (P06213 28-1370 isoform P06213-2 limits assumed) above, with F701A, F705A counted along it
T7 sequence (P06213 763-1382 partner limits assumed): as the sequence (P06213 763-1382 partner limits assumed) above

IR F497A = target: T8, IR F497A (Homo sapiens, UniProt P06213, F524A); assay: IR activation assay in 293 FT cells, IR F497A mutant; assay type: cell-based; settings: 10 min
T8 construct: expressed in transfected cells; host or cells: 293 FT cells
T8 sequence (P06213 28-1370 isoform P06213-2 F524A limits assumed): as the sequence (P06213 28-1370 isoform P06213-2 limits assumed) above, with F497A counted along it
T8 sequence (P06213 763-1382 partner limits assumed): as the sequence (P06213 763-1382 partner limits assumed) above

[1] = Chronic treatment by osmotic minipump; assay type: in vivo, mice
Excerpt: 2-month-old male mice were implanted with osmotic minipump releasing Humulin (0.2 U/day), S597 (0.3 U/day), or S597-S20D (0.3 U/day). […] Hepes, N=7; Humulin, N=8; S597, N=7; S597-S20D, N=4. […] Hepes, N=7; Humulin, N=8; S597, N=9; S597-S20D, N=4. Two-way ANOVA followed by Tukey's multiple comparisons test. […] Mean±SEM. Hepes, N=8; Humulin, N=7; S597, N=9; S597-S20D, N=5. […] Hepes, N=4; Humulin and S597 analogs, N=5. two-tailed Student's t-test. All graphs show Mean±SEM.
To examine the long-term effects of S597 in vivo, C57BL/6J WT mice were implanted with osmotic minipumps releasing either HEPES, Humulin, or mimetics. […] Consistent with previous work, chronic treatment of Humulin increased body weight (FIGS. 11E, 11F).

T47D [2] = assay: IR signaling in cancer cells, T47D; assay type: cell-based; settings: 10, 100 or 300 nM for 10 minutes
MCF7 = assay: Cancer cell proliferation, MCF7; assay type: cell-based
T47D [3] = assay: Cancer cell proliferation, T47D; assay type: cell-based
[4] = assay type: in vivo, mice; settings: 50 U/kg once daily for three days; 2 g glucose/kg after 6 hr. fast
Method: For oral glucose tolerance test, mice were fasted for 6 hr. and their blood glucose levels (T=0) were measured with tail bleeding using a glucometer (AlphaTRAK). After then, glucose (2 g/kg body weight) was administered by oral gavage. Blood glucose levels were measured at the indicated time points after glucose administration. For FIG. 31F, 2 months old male mice were fasted for 14 hr. […] One hour later livers were collected.

[5] = Zucker diabetic fatty rats; cited from earlier work

Q: Which “IR activation (auto-phosphorylation of IR, pY IR)” value (IR wild-type (WT); 293 FT cells expressing IR WT, 10 nM for 10 min) does the source give for CC[C@H](C)[C@H](NC(=O)[C@H](CCC(N)=O)NC(=O)[C@H](C)NC(=O)[C@H](Cc1c[nH]c2ccccc12)NC(=O)[C@H](CCC(=O)O)NC(=O)[C@H](CCC(=O)O)NC(=O)[C@H](CCC(=O)O)NC(=O)[C@H](CC(C)C)NC(=O)[C@H](CO)NC(C)=O)C(=O)N[C@@H](CCC(=O)O)C(=O)N[C@H]1CSSC[C@@H](C(=O)N2CCC[C@H]2C(=O)N[C@@H](CO)C(=O)N[C@@H](CCC(=O)O)C(=O)N[C@@H](CO)C(=O)N[C@@H](Cc2ccccc2)C(=O)N[C@@H](Cc2ccc(O)cc2)C(=O)N[C@@H](CC(=O)O)C(=O)N[C@@H](Cc2c[nH]c3ccccc23)C(=O)N[C@@H](Cc2ccccc2)C(=O)N[C@@H](CCC(=O)O)C(=O)N[C@@H](CCCNC(=N)N)C(=O)N[C@@H](CCC(N)=O)C(=O)N[C@@H](CC(C)C)C(N)=O)NC(=O)CNC(=O)[C@H](CCCNC(=N)N)NC(=O)CNC(=O)[C@H](Cc2ccc(O)cc2)NC(=O)[C@H](C(C)C)NC(=O)[C@H](CCC(=O)O)NC1=O [S597] (Ac-SLEEEWAQIECEVYGRGCPSESFYDWFERQL-NH2; disulfide 11-18) here?
A: The value was “as efficiently as insulin”.

Q: And the “difference between the A and B isoforms of IR activation” value (IR wild-type (WT); 293 FT cells expressing IR-A or IR-B, 10 min)?
A: Its value is “no significant difference”.

Q: What about the “IR activation (pY IR)” value (IR F64A) of the same compound?
A: Its value is “could still be activated”.

Q: And the “IR activation (pY IR)” value (IR F96A)?
A: The value was “great deficiency”.

Q: And the “IR activation (pY IR)” value (IR R14A)?
A: The value was “fully activated”.

Q: And the “IR activation (pY IR)” value (IR N15K)?
A: Its value is “fully activated”.

Q: And the “IR activation (pY IR)” value (IR D496K)?
A: The value was “fully activated”.

Q: What about the “IR activation (pY IR)” value (IR F701A/F705A) of the same compound?
A: Its value is “fully activated”.

Q: What about the “IR activation (pY IR)” value (IR F497A) of the same compound?
A: Its value is “fully activated”.

Q: What about the body weight gain [1] of the same compound?
A: Its body weight gain is “gained less than control mice”.

Q: What about the “weight gain and fat mass” value ([1]; FIG. 11, preliminary data) of the same compound?
A: Its value is “reduces weight gain and fat mass relative to insulin”.

Q: What about the IR signaling (T47D [2]) of the same compound?
A: The IR signaling was “failed to activate”.

Q: And the cell proliferation (MCF7)?
A: Its cell proliferation is “did not promote”.

Q: And the cell proliferation (T47D [3])?
A: The cell proliferation was “did not promote”.

Q: And the “area under curve (AUC) for blood glucose during OGTT” value [4]?
A: The value was “No significant”.

Q: What about the blood glucose [5] of the same compound?
A: The blood glucose was “lowers”.
